# In a melting point compilation (Tetko et al.; mined from patent text by program, amines drawn as free bases though some values may be those of a salt):
row,Compound,melting point
1,O=C(NCc1ccc2c(c1)OCO2)c1ccc2n1Cc1ccccc1N(C(=O)COc1ccc(Cl)cc1)C2,168 to 169 °C
2,Cc1cc(C)n2nc(S(=O)(=O)Cl)nc2c1,125 to 126 °C
3,C=CCCC(O)C(C)(C)N1COC(C)=C(c2ccccc2)C1=O (centres undefined),74 to 75 °C
4,CCc1nc(Cl)c(C(=O)N(C)CC)n1Cc1ccc2oc(-c3ccccc3NC(=O)OC(C)(C)C)c(Br)c2c1,95 to 96 °C
5,O=C(Nc1cc(Cl)ccc1O)Nc1cc(C(F)(F)F)ccc1Cl,172 to 173 °C
6,Cc1c(C(=O)O)ccc(Cl)c1O,191 °C
7,CCCC(CCC)NC(=O)c1ccc2oc(OCC)nc2c1,128 to 129 °C
8,O=C1COC(=O)C(Cc2ccccc2)O1 (centres undefined),64 to 65 °C
9,CS(=O)(=O)c1ccc(C(=O)c2c(O)cc(Cl)cc2Cl)c(Cl)c1,123 to 126 °C
10,COc1cccc(C2(CCC(=O)O)NC(=O)NC2=O)c1 (centres undefined),138 °C
11,OC[C@@H](O)[C@@H](c1cccc(Br)c1)N1CCc2cccc(OCc3ccccc3)c21,61 to 66 °C
12,CC(C)n1nc(-c2c(-c3ccccc3)nn3ccc(N4CCN(C(=O)CN(C)C)CC4)cc23)ccc1=O,129 to 130 °C
13,O=C(O)c1cn(-c2ccc(F)cc2)c2c(F)c(N3Cc4ccc(F)cc4C3)c(F)cc2c1=O,> 300 °C
14,CC(Nc1nc2ccc(Cl)cc2cc1C(=O)O)C(=O)O (centres undefined),178 to 190 °C
15,CCOC(=O)C(=O)Nc1ccc(Br)cc1[N+](=O)[O-],168 to 169 °C
16,CCNC(=O)c1ccc(Oc2c(C)n(CC(=O)O)c3ccc(F)cc23)cc1,220 to 222 °C
17,CN(C)C1=NS(=O)(=O)N=C1N[C@@H]1c2cc(OC(F)(F)F)ccc2OC(C)(C)[C@H]1O,135 to 140 °C
18,O=C1OC(c2ccccc2)=NC1=Cc1cc(Cl)ccc1Sc1cccs1,125 to 127 °C
19,COc1ccc(CSc2nnc(-c3ccc4c(c3)CCO4)o2)cc1F,121 to 122 °C
20,CCC1Cc2cc(OC)c(Cl)c(Cl)c2C1=O (centres undefined),146 to 147 °C
21,CCCN(CCC)C(=O)Cc1ccc(O)c2[nH]ncc12,164 to 165 °C
22,CCc1cc(=O)c2nc(OC)ccc2[nH]1,279 to 281 °C
23,CC(C)Oc1cc(OC(C)C)c(C(=O)O)c(C(F)(F)F)n1,147 to 150 °C
24,O=c1cnc2c(NC(CO)CO)nc(SCc3cccs3)nc2[nH]1,220 to 223 °C
25,Cn1ccc2c1CCn1ccnc1C2=C1CCN(CCNc2ncccn2)CC1,202 °C

row,Compound,melting point
1,CC(C)c1cccc(C(C)C)c1NC(=O)NCCN1CCN(CCSc2nc3ccccc3s2)CC1,147 to 149 °C
2,CCOCc1cc2cc(Br)ccc2oc1=O,118 to 119 °C
3,CC(C)C[C@H](NC(=O)c1ccc2c(c1)Nc1ccccc1S2)C(=O)N1CCC2(C1)OCCO2,75 to 77 °C
4,CC[Si](CC)(CC)Oc1cccc2ncc3c(c12)CCCC3,110 to 111 °C
5,Cc1ccccc1OS(=O)(=O)c1cc(S(N)(=O)=O)c(Oc2ccccc2)cc1Cl,157 to 159 °C
6,COc1ccc(C#N)cc1/C=C/C(=O)Sc1nc2ccccc2s1,183 to 185 °C
7,COc1ccc(C=CC(=O)O)cc1-c1cc2c(cc1OCc1cccc(O)c1)C(C)(C)CCC2(C)C,131 to 133 °C
8,O=C(c1cc([N+](=O)[O-])cc(C(F)(F)F)c1)c1cc([N+](=O)[O-])cc(C(F)(F)F)c1,181 °C
9,N#Cc1ccc(C(=O)c2cc(C(F)(F)F)ccc2S)cc1,210 °C
10,COCc1nc2c(OC)ccc(C(=O)Nc3c(Cl)cncc3Cl)c2[nH]1,230 to 231 °C
11,O=c1[nH][nH]c2c1c(O)nc1cc(Cl)c(Cl)cc12,> 350 °C
12,C=CCN(CC=C)Cc1noc(-c2ncn3c2[C@@H]2CCCN2C(=O)c2c(Cl)cccc2-3)n1,175 to 177 °C
13,CCOC(=O)c1cnn2c1nc(N1CCN(C)CC1)c1cnc3c(cnn3CC)c12,111 to 113 °C
14,O=C(N1CCN(c2ccncc2Cl)CC1)N1CCN(S(=O)(=O)c2ccc(Br)cc2)CC1,194 to 195 °C
15,NS(=O)(=O)c1ccc(-c2cnn(Cc3c(F)cc(F)cc3F)c(=O)c2-c2ccc(F)cc2)cc1,201 to 203 °C
16,CCc1ccc(Nc2nc3cc(NC(=O)c4ccc(OC)c(OC)c4)ccc3o2)cc1,> 250 °C
17,CN1C(=O)NC(=O)C1=O,146 to 149 °C
18,Cc1nc(Cl)c2c(-c3ccc([N+](=O)[O-])o3)nn(C)c2n1,212 °C
19,O=c1[nH]c(=O)n(CCCCN2CC=C(c3ccccc3)CC2)c2ccccc12,170 to 174 °C
20,CC1(c2ccc3c(c2)CC(=O)N3CC(F)(F)F)OCCO1,87 to 89 °C
21,O=C1c2ccccc2O[C@@H](c2ccccc2)[C@@H]1n1ccnc1 (relative stereo),199 to 203 °C
22,O=S(=O)(c1ccccc1)c1ccc(OCc2ccccc2)c(O)c1,144 to 148 °C
23,O=C(O)c1ccc2c(=O)[nH]c(=O)n(CCCCN3CCC(OC(c4ccccc4)c4ccccc4)CC3)c2c1,177 to 179 °C
24,"CCCCCCCCCCCCCCCCCCOC(C)c1ccc(-c2ccc(C(=O)O)cc2)cc1 (single isomer, unassigned; (+))",145 to 146 °C
25,O=C(O)C=CC(=O)c1cccs1,139 to 142 °C

row,Compound,melting point
1,CC(=O)Nc1ccc(-c2ccccc2)cc1[N+](=O)[O-],128 to 131 °C
2,CC1CCN(CCOc2ccc(NC(=O)CC(=O)c3ccc(-c4ccccc4)cc3)cc2Cl)CC1,135 to 139 °C
3,COc1ccccc1C=CCCCCCC(=O)O,42 to 43 °C
4,CCOc1ccc(S(C)(=O)=O)cc1C(=O)O,139 to 141 °C
5,CC(=O)NC[C@H]1CN(c2ccc(C3CCN(CC#N)CC3)c(F)c2)C(=O)O1,165 to 167 °C
6,COc1cc(OC)nc(-c2c(C)[nH]c3ccccc23)n1,182 to 184 °C
7,O=S(c1ccc(/C=C/c2nc(CNc3ccc(CCCCn4ccnn4)cc3)co2)cc1)C(F)(F)F (centres undefined),121 to 124 °C
8,C[C@@H](CN(Cc1ccccc1)Cc1ccccc1)OC(=O)N1C(C)(C)COC1(C)C,117 °C
9,CNc1ncc2c(-c3cccc(Cl)c3)cc(-c3cccc(CC(=O)O)c3)c(OC)c2n1,258 to 261 °C
10,COCc1ccc(C#Cc2ccc3c(c2)C(C)(C)CCC3(C)C)cc1,93 to 94 °C
11,N#Cc1c(O)nc2onc(-c3ccccc3)c2c1N,251 °C
12,Cc1nnc(-c2ccc3occ(-c4cccc(OC(F)(F)F)c4)c3n2)o1,146 to 147 °C
13,C=Cn1cc(C(=O)O)c(=O)c2cc(F)c(N3CCN(C)C(C)C3)c(F)c21 (centres undefined),178 to 179 °C
14,COc1cc2c3c(nc4ccc(Cl)cc4c3c1)-c1ccccc1N2,205 to 207 °C
15,CCN(CC)C(=O)Nc1ccc(S(=O)(=O)n2c(=O)n(C3CCCCCC3)c3cc(Cl)ccc32)c(OC)c1,218 °C
16,CN1CCC=C(c2nc(NC=O)sc2Cl)C1,193 °C
17,COC(=O)c1cc(Br)c(O)c(Br)n1,148 to 150 °C
18,Nc1ncc(C(=O)CBr)cc1Cl,134 °C
19,Cc1cc(N)ncc1I,198 to 200 °C
20,CN1CCN(c2cccc3c2C[C@H](NC(=O)c2cccc(OS(C)(=O)=O)c2)CC3)CC1,159 to 160 °C
21,CC1=C(C(=O)OCCN(C)Cc2ccccc2)C(c2cccc([N+](=O)[O-])c2)c2c(N)nc(N)nc2N1 (centres undefined),162 °C
22,O=C(O)Cc1c(C(=O)c2ccccc2)[nH]c2c(Cl)cccc12,190 to 193 °C
23,CCC1Oc2cc(C(=O)OC)ccc2NC1=O (centres undefined),132 to 134 °C
24,COc1ccc(C=CCCl)cc1,70 to 72 °C
25,CC(=O)Nc1cc2c(cc1Cl)CCN(C)C[C@@H]2c1ccccc1,105 to 110 °C

row,Compound,melting point
1,CCOC(=O)Nc1cccc(N2CCN(CCC3CCN(CC(C)=O)CC3)CC2)c1,118 °C
2,CCOC(=O)/C=C/c1cn(Cc2ccc(OCc3nc(-c4ccccc4)oc3C)cc2)cc1-c1ccccc1,120 to 121 °C
3,CCOC(=O)Cc1cc(Cl)cc(C(=O)c2ccccc2)c1N,80 to 82 °C
4,NC(=O)NN=C1CC(O)C(C=Cc2ccccc2)=C1CCCCCCC(=O)O (centres undefined),208 to 210 °C
5,Cc1ccc(Oc2ccc(S(=O)(=O)C[C@H]([C@H]3COC(C)(C)O3)N(O)C=O)cc2)cc1,156 to 158 °C
6,COc1cc(-c2nc3cc(OC)cc(OC)c3c(=O)[nH]2)cc(N2CCN(C(C)C)CC2)c1,212 to 213 °C
7,CCCn1c(=O)c2[nH]c(/C=C/c3cc(C)c(OC)cc3C)nc2n(CCC)c1=O,268 to 269 °C
8,O=c1[nH]c2c(c3nc(-c4ccccc4F)cn13)CNCC2,> 310 °C
9,CCOC(=O)c1nn(-c2ccc(C=O)cc2)nc1C,97 to 99 °C
10,COc1ccc(N2C(=O)[C@@H](CCCc3ccccc3)[C@@H]2c2ccc(N3CCN(Cc4ccccc4)CC3)cc2)cc1 (relative stereo),139 to 140 °C
11,CCCOc1cccc(C2(c3cccs3)N=C(N)N(C)C2=O)c1 (centres undefined),79 to 81 °C
12,CCCCc1nc2c(N)nc3ccc(OCCC4CCN(S(C)(=O)=O)CC4)cc3c2n1C,198 to 200 °C
13,CN(C)CN(C(=O)c1ccc(Cl)cc1Cl)c1ccc(C(=O)N2Cc3cccn3Cc3ccccc32)cc1,126 to 129 °C
14,CCOC(=O)C(=O)c1csc(NC(=S)Nc2ccccc2F)n1,192 to 193 °C
15,COc1ccc(C(F)(F)F)cc1Nc1cccn2nc(Nc3cccc(N4CCN(C)CC4)c3)nc12,198 to 200 °C
16,CNS(=O)(=O)c1cc(C)sc1CC(=O)O,109 °C
17,NS(=O)(=O)c1ccccc1C=C1CCOC1=O,178 to 180 °C
18,N#Cc1ccc2[nH]cc(Cc3cccnc3)c2c1,125 °C
19,CC(C)C(CCl)NC(=O)c1nsc2ccc(-n3c(=O)cc(C(F)(F)F)n(C)c3=O)cc12 (centres undefined),196 to 197 °C
20,Nc1cccc2c(=O)[nH]ccc12,258 to 259 °C
21,O=C1N(Cc2ccccc2OC(F)(F)F)c2ccccc2C12COc1cc3c(cc12)OCO3 (centres undefined),88 to 91 °C
22,COc1cc(OC)c2c(=O)cc(-c3cc[nH]n3)oc2c1,197 to 198 °C
23,CCCOc1ccc(S(=O)(=O)N2CCN(C)CC2)cc1-c1nc2cc(Cl)c([N+](=O)[O-])cc2c(=O)[nH]1,225 to 228 °C
24,O=C1COc2cc(Oc3ccc(O)cc3)ccc2N1,250 to 251 °C
